Assay results from paper PMC10530652 (BME Frontiers, 2021).

Key:
MMP-2 = molecular target: T1, MMP-2 (Homo sapiens, UniProt P08253); experiment: In vitro enzymatic validation of FIB One with recombinant MMP-2 (plate reader); format: biochemical; details: MMP 30 nM
T1 construct: recombinant MMPs (Enzo Life Sciences) (active domains of MMP-1, MMP-2, MMP-3, MMP-7, MMP-8, MMP-9, MMP-10, MMP-11, MMP-12, and MMP-13); purchased Enzo Life Sciences
Experimental: (§1) To determine the enzymatic specificity of FIB One, the probe was incubated at a concentration of 1 μM (unless otherwise stated) with the recombinant MMPs (Enzo Life Sciences) (active domains of MMP-1, MMP-2, MMP-3, MMP-7, MMP-8, MMP-9, MMP-10, MMP-11, MMP-12, and MMP-13, all at 30 nM), thrombin (Sigma Aldrich) (5 U/mL), factor Xa (Sigma Aldrich) (500 nM), plasmin (Sigma Aldrich) (30 nM), and human neutrophil elastase (30 nM). Where appropriate, enzymes were incubated with specific inhibitors for 30 min at 37°C prior to addition of FIB One. […] Enzyme free reactions served as a control. Enzymatic reactions were performed in MMP buffer (10 mM CaCl2, 6.1 g Tris-HCl, 8.6 g NaCl per litre, pH 7.5) in a final volume of 20 μL. Reactions were performed in duplicate in 384-well plates (Life Technologies) with optically clear plate seals (Thermo Scientific) and repeated thrice (independently). Fluorescence signal was measured for up to 60 min, ex/em 485/528 nm using microplate reader (BioTek Synergy H1 multimode reader). Data were normalised to buffer alone and are presented as fold-change in signal (relative fluorescent units, RFU) compared to enzyme-free controls. Data were plotted using Prism 7 (GraphPad Software Inc., La Jolla, CA, USA).

MMP-13 = molecular target: T2, MMP-13 (Homo sapiens, UniProt P45452); experiment: In vitro enzymatic validation of FIB One with recombinant MMP-13 (plate reader); format: biochemical; details: MMP 30 nM
T2 construct: recombinant MMPs (Enzo Life Sciences) (active domains of MMP-1, MMP-2, MMP-3, MMP-7, MMP-8, MMP-9, MMP-10, MMP-11, MMP-12, and MMP-13); purchased Enzo Life Sciences
Experimental: as §1, with “Fluorescence signal was measured for up to 60 min, ex/em 485/528 nm using microplate reader (BioTek Synergy H1 multimode reader).” left out

[1] = Stability study of AZD1236 aqueous formulation (HPLC); format: physicochemical; details: for Conc. / pH: aqueous formulation; for Conc. / Total imp. RRT(%): HPLC; for ∆%: relative to starting concentration of 70µg/5mL
Experimental: Summary table of stability as assessed by HPLC over 24 months stored under GMP conditions at RT. Data shown in blue represents inverted position vials. ∆% is relative to starting concentration of 70µg/5mL at time zero. Acceptance criteria: Retention time (RT) for AZD1236 is 3.97 min (Range 3.40-4.50 min). Total impurities – report as RRT (%) for each impurity. Biological functionality LOD = >21µg/5mL. pH 7.5 (7.0-8.0).

[2] = AZD1236 0.11-14 µM, FIB One 1 µM
[3] = room temperature, 12m, 1st of 2 vials
[4] = room temperature, 12m, 2nd of 2 vials
[5] = room temperature, 18m, 1st of 2 vials
[6] = room temperature, 18m, 2nd of 2 vials
[7] = room temperature, 24m, 1st of 2 vials
[8] = room temperature, 24m, 2nd of 2 vials
[9] = room temperature, 1m, 1st of 2 vials
[10] = room temperature, 1m, 2nd of 2 vials
[11] = room temperature, 3m, 1st of 2 vials
[12] = room temperature, 3m, 2nd of 2 vials
[13] = room temperature, 6m, 1st of 2 vials
[14] = room temperature, 6m, 2nd of 2 vials
[15] = room temperature, 10.5m, 1st of 2 vials
[16] = room temperature, 10.5m, 2nd of 2 vials
[17] = room temperature, 24h, 1st of 2 vials
[18] = room temperature, 24h, 2nd of 2 vials
[19] = room temperature, 15d, 1st of 2 vials
[20] = room temperature, 15d, 2nd of 2 vials
[21] = FIB One 1 μM, MMP buffer pH 7.5, ex/em 485/528 nm, fold-change vs enzyme-free control, n=3 in duplicate

T1 sequence (P08253 110-446 limits assumed): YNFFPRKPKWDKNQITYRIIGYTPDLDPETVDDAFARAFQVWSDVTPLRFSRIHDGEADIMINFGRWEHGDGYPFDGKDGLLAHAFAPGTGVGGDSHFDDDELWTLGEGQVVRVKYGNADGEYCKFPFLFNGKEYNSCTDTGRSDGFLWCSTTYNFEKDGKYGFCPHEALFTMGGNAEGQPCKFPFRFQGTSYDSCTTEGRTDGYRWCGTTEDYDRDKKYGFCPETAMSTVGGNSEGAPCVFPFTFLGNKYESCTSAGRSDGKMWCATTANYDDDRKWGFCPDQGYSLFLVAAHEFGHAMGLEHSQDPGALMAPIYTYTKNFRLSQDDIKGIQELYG

AZD1236
inhibition of MMP (MMP-2; [2]): ability to inhibit | inhibition of MMP (MMP-13; [2]): ability to inhibit | biological functionality in aqueous formulation ([1]; 24 months, GMP conditions at RT, biological functionality LOD = >21µg/5mL): remains biologically functional | degradation in aqueous formulation of the drug product (HPLC traces) ([1]; after 24 months, stored at ambient temperature): no degradation | Conc. ([1]; room temperature, 1m, 1st of 2 vials (one inverted)): 77.0 µg per 5mL | Conc. ([1]; room temperature, 1m, 2nd of 2 vials (one inverted)): 76.8 µg per 5mL | Conc. ([1]; room temperature, 3m, 1st of 2 vials (one inverted)): 69.4 µg per 5mL | Conc. ([1]; room temperature, 3m, 2nd of 2 vials (one inverted)): 69.4 µg per 5mL | Conc. ([1]; room temperature, 6m, 1st of 2 vials (one inverted)): 70.8 µg per 5mL | Conc. ([1]; room temperature, 6m, 2nd of 2 vials (one inverted)): 70.6 µg per 5mL | Conc. ([1]; room temperature, 10.5m, 1st of 2 vials (one inverted)): 71.1 µg per 5mL | Conc. ([1]; room temperature, 10.5m, 2nd of 2 vials (one inverted)): 70.7 µg per 5mL | pH [1, 3]: 7.5 | pH [1, 4]: 7.5 | Conc. ([1]; room temperature, 12m, 1st of 2 vials (one inverted)): 70.0 µg per 5mL | Conc. ([1]; room temperature, 12m, 2nd of 2 vials (one inverted)): 69.2 µg per 5mL | pH [1, 5]: 7.5 | pH [1, 6]: 7.5 | Conc. ([1]; room temperature, 18m, 1st of 2 vials (one inverted)): 70.4 µg per 5mL | Conc. ([1]; room temperature, 18m, 2nd of 2 vials (one inverted)): 70.2 µg per 5mL | pH [1, 7]: 7.5 | pH [1, 8]: 7.5 | Conc. ([1]; room temperature, 24m, 1st of 2 vials (one inverted)): 72.96 µg per 5mL | Conc. ([1]; room temperature, 24m, 2nd of 2 vials (one inverted)): 72.52 µg per 5mL | Conc. ([1]; room temperature, 24h, 1st of 2 vials (one inverted)): 74.3 µg per 5mL | Conc. ([1]; room temperature, 24h, 2nd of 2 vials (one inverted)): 74.5 µg per 5mL | Conc. ([1]; room temperature, 15d, 1st of 2 vials (one inverted)): 70.2 µg per 5mL | Conc. ([1]; room temperature, 15d, 2nd of 2 vials (one inverted)): 70.3 µg per 5mL | pH ([1]; timepoint 0): 7.5 | ∆% [1, 9]: +10.0% | ∆% [1, 10]: +9.70% | ∆% [1, 11]: -0.90% | ∆% [1, 12]: -0.90% | ∆% [1, 13]: +1.00% | ∆% [1, 14]: +0.80% | ∆% [1, 15]: +1.50% | ∆% [1, 16]: +1.00% | ∆% [1, 3]: +0.00% | ∆% [1, 4]: -1.15% | ∆% [1, 5]: +0.6% | ∆% [1, 6]: +0.3% | ∆% [1, 7]: +4.2% | ∆% [1, 8]: +3.6% | ∆% [1, 17]: +6.0% | ∆% [1, 18]: +6.0% | ∆% [1, 19]: +0.14% | ∆% [1, 20]: +0.21% | Total imp. RRT(%) [1, 9]: ND/NQ ND/NQ | Total imp. RRT(%) [1, 10]: ND/NQ ND/NQ | Total imp. RRT(%) [1, 11]: ND/NQ ND/NQ | Total imp. RRT(%) [1, 12]: ND/NQ ND/NQ | Total imp. RRT(%) [1, 13]: ND/NQ ND/NQ | Total imp. RRT(%) [1, 14]: ND/NQ ND/NQ | Total imp. RRT(%) [1, 15]: ND/NQ ND/NQ | Total imp. RRT(%) [1, 16]: ND/NQ ND/NQ | Total imp. RRT(%) [1, 3]: ND/NQ ND/NQ | Total imp. RRT(%) [1, 4]: ND/NQ ND/NQ | Total imp. RRT(%) [1, 5]: ND/NQ ND/NQ | Total imp. RRT(%) [1, 6]: ND/NQ ND/NQ | Total imp. RRT(%) [1, 7]: ND/NQ ND/NQ | Total imp. RRT(%) [1, 8]: ND/NQ ND/NQ | Total imp. RRT(%) [1, 17]: ND/NQ ND/NQ | Total imp. RRT(%) [1, 18]: ND/NQ ND/NQ | Total imp. RRT(%) [1, 19]: ND/NQ ND/NQ | Total imp. RRT(%) [1, 20]: ND/NQ ND/NQ

(Pro-Phe-Gly-Nle-Lys-βAla)3 [FIB One]
fluorescent amplification of FIB One on exposure to enzyme (MMP-2; [21]): rapid and specific fluorescent amplification | fluorescent amplification of FIB One on exposure to enzyme (MMP-13; [21]): rapid and specific fluorescent amplification | signal amplification compared with analogous monomeric linear structure (FRET-monomer) (MMP-13; probes 1 µM, 10 min incubation, n=3 in duplicate): improved signal amplification
